Reference: the supplement of paper PMC11451515

Test system: SEM cells
Test: cell viability relative to DMSO control; higher = less cytotoxic
Details: 48 h
Method in brief: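 Viability values are per-plate percentages of DMSO wells, with background from cell-free wells. Library compounds in DMSO were pin-dosed, in an 11-point threefold series from 47 μM to 0.79 nM, onto NOMO1 or SEM (500 cells/well) or P12-Ichikawa (1000 cells/well) leukemia cells in 1536-well plates (5 μl). Those cells had been adapted for at least four passages in each medium, and CellTiter-Glo One luminescence was read after 48 h at 37°C.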

[1] = HPLM + 10% dialyzed FBS, 0.000781 µM
[2] = HPLM + 10% dialyzed FBS, 0.00234 µM
[3] = HPLM + 10% dialyzed FBS, 0.00702 µM
[4] = HPLM + 10% dialyzed FBS, 0.0211 µM
[5] = HPLM + 10% dialyzed FBS, 0.0632 µM
[6] = HPLM + 10% dialyzed FBS, 0.19 µM
[7] = HPLM + 10% dialyzed FBS, 0.569 µM
[8] = HPLM + 10% dialyzed FBS, 1.71 µM
[9] = HPLM + 10% dialyzed FBS, 5.12 µM
[10] = HPLM + 10% dialyzed FBS, 15.4 µM
[11] = HPLM + 10% dialyzed FBS, 46.1 µM
[12] = RPMI 5 mM glucose + 10% FBS, 0.000781 µM
[13] = RPMI 5 mM glucose + 10% FBS, 0.00234 µM
[14] = RPMI 5 mM glucose + 10% FBS, 0.00702 µM
[15] = RPMI 5 mM glucose + 10% FBS, 0.0211 µM
[16] = RPMI 5 mM glucose + 10% FBS, 0.0632 µM
[17] = RPMI 5 mM glucose + 10% FBS, 0.19 µM
[18] = RPMI 5 mM glucose + 10% FBS, 0.569 µM
[19] = RPMI 5 mM glucose + 10% FBS, 1.71 µM
[20] = RPMI 5 mM glucose + 10% FBS, 5.12 µM
[21] = RPMI 5 mM glucose + 10% FBS, 15.4 µM
[22] = RPMI 5 mM glucose + 10% FBS, 46.1 µM
[23] = RPMI 5 mM glucose + 10% dialyzed FBS, 0.000781 µM
[24] = RPMI 5 mM glucose + 10% dialyzed FBS, 0.00234 µM
[25] = RPMI 5 mM glucose + 10% dialyzed FBS, 0.00702 µM
[26] = RPMI 5 mM glucose + 10% dialyzed FBS, 0.0211 µM
[27] = RPMI 5 mM glucose + 10% dialyzed FBS, 0.0632 µM
[28] = RPMI 5 mM glucose + 10% dialyzed FBS, 0.19 µM
[29] = RPMI 5 mM glucose + 10% dialyzed FBS, 0.569 µM
[30] = RPMI 5 mM glucose + 10% dialyzed FBS, 1.71 µM
[31] = RPMI 5 mM glucose + 10% dialyzed FBS, 5.12 µM
[32] = RPMI 5 mM glucose + 10% dialyzed FBS, 15.4 µM
[33] = RPMI 5 mM glucose + 10% dialyzed FBS, 46.1 µM

| SMILES | cell viability [1] | cell viability [2] | cell viability [3] | cell viability [4] | cell viability [5] | cell viability [6] | cell viability [7] | cell viability [8] | cell viability [9] | cell viability [10] | cell viability [11] | cell viability [12] | cell viability [13] | cell viability [14] | cell viability [15] | cell viability [16] | cell viability [17] | cell viability [18] | cell viability [19] | cell viability [20] | cell viability [21] | cell viability [22] | cell viability [23] | cell viability [24] | cell viability [25] | cell viability [26] | cell viability [27] | cell viability [28] | cell viability [29] | cell viability [30] | cell viability [31] | cell viability [32] | cell viability [33] |
| --- | --- | --- | --- | --- | --- | --- | --- | --- | --- | --- | --- | --- | --- | --- | --- | --- | --- | --- | --- | --- | --- | --- | --- | --- | --- | --- | --- | --- | --- | --- | --- | --- | --- |
| CC(C)c1onc(-c2c(Cl)cccc2Cl)c1COc1ccc(/C=C/c2cccc(C(=O)O)c2)c(Cl)c1 | 122% | 130% | 114% | 120% | 121% | 129% | 115% | 116% | 125% | 108% | 91.5% | 117% | 119% | 109% | 128% | 127% | 120% | 105% | 120% | 115% | 106% | 85.7% | 119% | 134% | 120% | 146% | 132% | 128% | 118% | 117% | 115% | 104% | 95.1% |
| Cc1ccc(Nc2cc(-c3cccc(N4C(=O)c5ccccc5C4=O)c3)ncn2)cc1N[S+](C)(=O)[O-] | 102% | 97.9% | 131% | 117% | 126% | 123% | 117% | 137% | 123% | 123% | 76.2% | 123% | 95.8% | 137% | 138% | 128% | 132% | 142% | 166% | 133% | 132% | 105% | 122% | 117% | 119% | 119% | 135% | 115% | 127% | 154% | 136% | 142% | 77.7% |
| Cc1c(N)nc([C@H](CC(N)=O)NC[C@@H](N)C(N)=O)nc1C(=O)N[C@H](C(=O)N[C@@H](C)[C@H](O)[C@@H](C)C(=O)N[C@@H](C(=O)NCCc1nc(-c2nc(C(=O)NCCC[S+](C)C)cs2)cs1)[C@@H](C)O)C(O[C@H]1O[C@H](CO)[C@H](O)[C@@H](O)[C@H]1O[C@H]1O[C@H](CO)[C@@H](O)[C@H](OC(N)=O)[C@@H]1O)c1c[nH]cn1 (some centres not stated) | 110% | 115% | 115% | 113% | 101% | 128% | 121% | 82.9% | 61.9% | 67.2% | 74.2% | 99.2% | 109% | 107% | 114% | 89.7% | 121% | 113% | 61.8% | 64.9% | 29.7% | 17.7% | 89.6% | 110% | 99.3% | 111% | 88.4% | 113% | 91.5% | 81.8% | 54.3% | 16.9% | 14.8% |
| COc1cc(NCc2ccc3nc(N)nc(N)c3c2C)cc(OC)c1OC | 78.1% | 89.2% | 91.1% | 100% | 99.6% | 104% | 99.7% | 38.1% | 40.3% | 32.5% | 12.1% | 69.1% | 94.4% | 84.9% | 84.9% | 96.8% | 93.2% | 96.8% | 24.4% | 98.4% | 72.5% | 3.26% | 74.5% | 89.3% | 88.6% | 82.3% | 94.4% | 94.8% | 102% | 23.9% | 62.9% | 35.7% | 3.29% |
| CC(=O)OC[C@@H]1O[C@H]([C@H](OC(C)=O)[C@@H]1OC(C)=O)N2\C=C/C(=O)NC2=O |  |  |  |  |  |  |  |  |  |  |  |  |  |  |  |  |  |  |  |  |  |  | 118% | 109% | 137% | 119% | 114% | 143% | 113% | 112% | 122% | 108% | 93.9% |
| CN(C)C/C=C/C(=O)Nc1ccc(C(=O)Nc2cccc(Nc3ncc(Cl)c(-c4c[nH]c5ccccc45)n3)c2)cc1 | 75.1% | 79.4% | 90% | 62.5% | 85.8% | 47.6% | 4.17% | 3.85% | 3.85% | 3.77% | 3.63% | 97.5% | 122% | 128% | 129% | 120% | 68% | 5.08% | 6.09% | 5.71% | 6.09% | 6.13% | 83.4% | 76.3% | 103% | 73.3% | 78.8% | 43.6% | 4.95% | 4.94% | 4.59% | 4.42% | 4.34% |
| O=C(c1cncc(Br)c1)N1CCC(N2CCCC2)CC1 | 100% | 118% | 107% | 106% | 115% | 106% | 106% | 107% | 114% | 99.7% | 88.5% | 98.4% | 106% | 107% | 110% | 105% | 114% | 117% | 108% | 117% | 95.1% | 77.2% | 110% | 95% | 95% | 105% | 99% | 112% | 102% | 98.7% | 99.1% | 91.2% | 71.2% |
| Cc1ccc(C(=O)Nc2cccc(C(F)(F)F)c2)cc1Nc1nc(-c2cccnc2)nc2c1cnn2C | 38.9% | 83.8% | 89.1% | 87.7% | 78.7% | 95.3% | 90.5% | 75.3% | 83.9% | 59% | 53.4% | 58.7% | 103% | 104% | 102% | 85.7% | 101% | 83% | 83% | 98.4% | 56.8% | 60.6% | 31% | 92.1% | 109% | 83.8% | 82.8% | 97.7% | 92.1% | 81.1% | 113% | 68.5% | 62.1% |
| CCC(C)CCCCC(=O)N[C@@H](CCN)C(=O)NC(C(=O)N[C@H](CCN)C(=O)N[C@@H]1CCNC(=O)C([C@@H](C)O)NC(=O)[C@@H](CCN)NC(=O)[C@@H](CCN)NC(=O)[C@@H](CC(C)C)NC(=O)[C@H](Cc2ccccc2)NC(=O)[C@H](CCN)NC1=O)[C@@H](C)O (some centres not stated) | 81.6% | 85.8% | 94% | 94.3% | 100% | 92.9% | 76.5% | 112% | 109% | 110% | 101% | 104% | 113% | 109% | 109% | 107% | 110% | 90.1% | 108% | 111% | 118% | 108% | 87.1% | 90.9% | 93.2% | 86.1% | 107% | 111% | 49.8% | 103% | 105% | 102% | 118% |
| O=C(O)c1ccc(O)c2ncc(N3CCOCC3)cc12 | 101% | 117% | 128% | 110% | 103% | 102% | 116% | 99.8% | 73.5% | 99.2% | 11.4% | 106% | 109% | 109% | 115% | 112% | 94.1% | 106% | 99.3% | 65.9% | 84% | 7.59% | 94.8% | 98.4% | 96% | 99.6% | 95% | 86.2% | 99% | 87.4% | 46.4% | 68.9% | 7.27% |
| Nc1n[nH]c2nnc(-c3c(-c4ccccc4)nn4ccccc34)cc12 | 93.5% | 109% | 109% | 115% | 116% | 127% | 124% | 109% | 113% | 92.2% | 9.4% | 113% | 114% | 107% | 121% | 122% | 131% | 121% | 117% | 117% | 100% | 17.3% | 116% | 102% | 119% | 126% | 114% | 125% | 134% | 123% | 137% | 116% | 21% |
| COC1=CC=C(C=C1)/C2=C(O)/C(=O)C3=C(O)C=C(O)C(=C3O2)CC=C(C)C | 104% | 95.9% | 98.8% | 114% | 122% | 111% | 109% | 118% | 107% | 97.8% | 120% | 86.7% | 86.2% | 90.8% | 85.6% | 95.2% | 100% | 93.4% | 92% | 94.1% | 80.4% | 95.2% | 105% | 103% | 115% | 115% | 120% | 113% | 124% | 118% | 125% | 121% | 108% |
| CNc1nc(-c2ccc3c(N)n[nH]c3c2)cc(N2C[C@@H](C(=O)NC3CCCCC3)CC[C@H]2C)n1 | 72.6% | 90% | 83.9% | 81.1% | 83.1% | 84.7% | 59.8% | 57.3% | 60.3% | 48.5% | 14.3% | 89.8% | 85.9% | 102% | 108% | 88.8% | 113% | 82.1% | 78.8% | 71.5% | 47.9% | 2.66% | 80.6% | 90.7% | 76.8% | 76.1% | 79.4% | 83.1% | 71.2% | 57.9% | 63.1% | 50.7% | 10.9% |
